Columns and labels:
Experiment in all cases: Test B pre-/postemergence plant response
Format in all cases: in vivo
wild oat (Avena fatua) = tested on: wild oat (Avena fatua)
Summary of the method: (§1)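 Preemergence and postemergence (plants 2-18 cm, 1- to 4-leaf stage) applications used test chemicals in a non-phytotoxic solvent with surfactant. Plants were held in a greenhouse 13 to 15 days, then rated visually against controls on a 0-100 scale (0 no effect, 100 complete control).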

[1] = tested on: catchweed bedstraw (Galium aparine); conditions: Preemergence; for Galium plant response rating: scale 0 to 100
Summary of the method: as §1

[2] = tested on: bermudagrass (Cynodon dactylon); conditions: for Bermudagrass plant response rating: 8 g ai/ha
Summary of the method: as §1

[3] = tested on: cocklebur (Xanthium strumarium); conditions: for Cocklebur plant response rating: 8 g ai/ha
Summary of the method: as §1

[4] = tested on: wheat (Triticum aestivum)
Summary of the method: as §1

soybean (Glycine max) = tested on: soybean (Glycine max)
Summary of the method: as §1

[5] = tested on: downy bromegrass (Bromus tectorum); conditions: for Bromegrass, Downy plant response rating: 8 g ai/ha
Summary of the method: as §1

[6] = tested on: large crabgrass (Digitaria sanguinalis)
Summary of the method: as §1

[7] = tested on: woolly cupgrass (Eriochloa villosa)
Summary of the method: as §1

[8] = tested on: velvetleaf (Abutilon theophrasti)
Summary of the method: as §1

[9] = 8 g ai/ha, postemergence, 0-100 scale
[10] = 16 g ai/ha, postemergence, 0-100 scale
[11] = Postemergence, 31 g ai/ha, scale 0 to 100
[12] = Postemergence, 62 g ai/ha, scale 0 to 100, 0 no effect, 100 complete control
[13] = Preemergence, 31 g ai/ha, scale 0 to 100 (0 no effect, 100 complete control)
[14] = Preemergence, 62 g ai/ha, 0 to 100 scale, 0 no effect, 100 complete control
[15] = Preemergence, 8 g ai/ha, scale 0 to 100
[16] = Preemergence, 16 g ai/ha, scale 0 to 100
[17] = Postemergence, 16 g ai/ha, scale 0 to 100
[18] = Preemergence, 16 g ai/ha, scale 0 to 100 (0 no effect, 100 complete control)

CCc1cc(-c2ccc(Br)cc2)nn1-c1c(O)c(C)nn(C)c1=O [Compound 74]
85: Plant response rating, Bermudagrass [2, 17] | Plant response rating, Wheat [4, 14] | Plant response rating, Bromegrass, Downy [5, 18] | Plant response rating, Bromegrass, Downy [5, 13] | Plant response rating, Bromegrass, Downy [5, 14] | Cupgrass, Woolly plant response rating [7, 9]
95: Plant response rating, Bermudagrass [2, 11] | Plant response rating, Wheat [4, 12] | Crabgrass, Large plant response rating [6, 16] | Cupgrass, Woolly plant response rating [7, 16]
50: Oat, Wild plant response rating (wild oat (Avena fatua); [15]) | Plant response rating, Bromegrass, Downy [5, 11]
100: Plant response rating, Oat, Wild (wild oat (Avena fatua); [11]) | Plant response rating, Oat, Wild (wild oat (Avena fatua); [12]) | Bermudagrass plant response rating ([2]; Preemergence, scale 0 to 100 (0 no effect, 100 complete control)) | Plant response rating, Bermudagrass [2, 18] | Plant response rating, Bermudagrass [2, 13] | Plant response rating, Bermudagrass [2, 14] | Plant response rating, Crabgrass, Large [6, 12] | Plant response rating, Crabgrass, Large [6, 13] | Plant response rating, Crabgrass, Large [6, 14] | Plant response rating, Cupgrass, Woolly [7, 14]
30: Bromegrass, Downy plant response rating ([5]; Preemergence, scale 0 to 100)
90: Plant response rating, Wheat [4, 11] | Plant response rating, Crabgrass, Large [6, 17] | Plant response rating, Cupgrass, Woolly [7, 17] | Plant response rating, Cupgrass, Woolly [7, 11]
40: Wheat plant response rating [4, 9] | Plant response rating, Bromegrass, Downy [5, 17]
25: Plant response rating, Wheat [4, 13]
70: Plant response rating, Oat, Wild (wild oat (Avena fatua); [13]) | Oat, Wild plant response rating (wild oat (Avena fatua); [16]) | Wheat plant response rating [4, 10]
0: Plant response rating, Galium ([1]; 31 g ai/ha, scale 0 to 100 (0 no effect, 100 complete control)) | Plant response rating, Galium ([1]; 62 g ai/ha, 0 to 100 scale, 0 no effect, 100 complete control) | Galium plant response rating ([1]; 8 g ai/ha) | Galium plant response rating ([1]; 16 g ai/ha) | Cocklebur plant response rating ([3]; postemergence, 0-100 scale) | Plant response rating, Cocklebur [3, 17] | Plant response rating, Cocklebur [3, 11] | Plant response rating, Cocklebur [3, 12] | Plant response rating, Cocklebur [3, 18] | Plant response rating, Cocklebur [3, 13] | Plant response rating, Cocklebur [3, 14] | Cocklebur plant response rating ([3]; Preemergence, scale 0 to 100) | Wheat plant response rating [4, 16] | Soybean plant response rating (soybean (Glycine max); [9]) | Soybean plant response rating (soybean (Glycine max); [10]) | Plant response rating, Soybean (soybean (Glycine max); [11]) | Plant response rating, Soybean (soybean (Glycine max); [12]) | Plant response rating, Soybean (soybean (Glycine max); [13]) | Plant response rating, Soybean (soybean (Glycine max); [14]) | Soybean plant response rating (soybean (Glycine max); [15]) | Soybean plant response rating (soybean (Glycine max); [16]) | Velvetleaf plant response rating [8, 9] | Velvetleaf plant response rating [8, 10] | Plant response rating, Velvetleaf [8, 11] | Plant response rating, Velvetleaf [8, 12] | Plant response rating, Velvetleaf [8, 13] | Plant response rating, Velvetleaf [8, 14] | Velvetleaf plant response rating [8, 15] | Velvetleaf plant response rating [8, 16]
20: Bermudagrass plant response rating ([2]; postemergence, 0-100 scale)
10: Bromegrass, Downy plant response rating ([5]; postemergence, 0-100 scale)
98: Oat, Wild plant response rating (wild oat (Avena fatua); [9]) | Oat, Wild plant response rating (wild oat (Avena fatua); [10]) | Plant response rating, Bermudagrass [2, 12] | Plant response rating, Crabgrass, Large [6, 11] | Plant response rating, Cupgrass, Woolly [7, 12] | Plant response rating, Cupgrass, Woolly [7, 13]
60: Plant response rating, Bromegrass, Downy [5, 12]
80: Plant response rating, Oat, Wild (wild oat (Avena fatua); [14]) | Crabgrass, Large plant response rating [6, 9]
65: Crabgrass, Large plant response rating [6, 15] | Cupgrass, Woolly plant response rating [7, 15]

Source: patent publication US20100267561A1, “HERBICIDAL PYRIDAZINONE DERIVATIVES” (priority 2007, published 2010)
